Series [1] is described as follows: Hygroscopicity test. Format: physicochemical. To be noted: 25° C., RH80%, 24 hours, hydrobromide. The procedure: An appropriate amount of a test product is taken and spread in a glass-stoppered weighing bottle that has been placed in an artificial climate box (temperature is 25° C.±1° C., relative humidity is 80%±2%) for 24 hours. The weighing bottle is opened, put together with the stopper in the artificial climate box (the temperature is 25° C.±1° C., the relative humidity is 80%±2%) for 24 hours, and then taken out. The moisture content of the test product before and after being placed in the artificial climate box is measured, and the hygroscopicity is measured by comparing the change in moisture content.

Series [2] is classed as physicochemical. To be noted: 7 days. As for the experimental part: The test product is placed in suitable clean containers, and then placed under conditions of high temperature (80° C.), high humidity (25° C., relative humidity 92.5%), and light (light intensity 4500±500 1× and 90 μw/cm^2), respectively, for 7 days, and samples are taken on the 7th day and tested according to the stability inspection items.

The nature of series [3]: physchem. The format is physicochemical. The settings on record: 37 °C, water, thermodynamic from solid, Solubility in water. The procedure:
About 10 mg of the test product is taken and put in a 1.5 mL sample tube, to which 1 mL of deionized water is added, and then the sample tube is placed in a constant temperature mixer and shaken at 37° C. for 30 minutes; after shaking, the sample tube is placed in a centrifuge to undergo centrifugation for 2 minutes. Then, 500 μL of the supernatant is taken and diluted with acetonitrile to an appropriate concentration, which is used as a test sample solution for HPLC analysis.
An appropriate amount of sample was weighed and put in a glass test tube, to which a selected solvent was gradually added. The clarification process was observed.

Series [4] in a line: Toxicity test of a single intragastric administration to SD rats. The format is in vivo. To be noted: both sexes, Sprague-Dawley (SD), rat, in vivo, po. The procedure: (§1) The safety of the hydrobromide of Compound Z in SD rats and beagle dogs was evaluated in accordance with the “Good Laboratory Practice” (2017) issued by the National Medical Products Administration (NMPA), and the acute toxicity test and 14-day long-term toxicity test were carried out, respectively.
(§2) Method: 40 SD rats were randomly divided into 4 groups, 10 rats in each group, half male and half female. The rats were given a single intragastric administration of a solvent of PEG400/Kolliphor® HS 15/ultrapure water (40/10/50, v/v/v) and the hydrobromide of Compound Z (200, 600 and 2000 mg/kg, based on the free base) dissolved in this solvent, respectively. After administration, observation was continued for 14 days, and dissection was performed on the 15th day as planned. During the test, clinical observations, body weight, feed consumption and anatomical and morphological observations by naked eyes were evaluated.

Series [5] relates to SD rats. The series is described as above. The format is in vivo. The settings on record: SD rats, single intragastric 200, 600 and 2000 mg/kg, 14 days observation. As for the experimental part: as §1, §2
A short description of series [6]: Toxicity test of a single intragastric administration to beagle dogs. The format is in vivo. The settings on record: both sexes, beagle, dog, in vivo, po. The procedure:
as §1
(§3) Method: 8 beagle dogs were randomly divided into 4 groups, 2 dogs in each group, one male and one female. The dogs were given a single intragastric administration of a solvent of PEG400/Kolliphor® HS 15/ultrapure water (40/10/50, v/v/v) and the hydrobromide of Compound Z (50, 250 and 1000 mg/kg, based on the free base) dissolved in this solvent, respectively. After administration, observation was continued for 14 days, and dissection was performed on the 15th day as planned. Clinical observations, body weight, feed consumption, clinical pathology (blood, blood coagulation, plasma biochemistry), and morphological observation by naked eyes were evaluated.

Series [7] concerns beagle dogs. The series is described as above. Format: in vivo. To be noted: beagle dogs, single intragastric 50, 250 and 1000 mg/kg. The procedure:
as §1, §3

A short description of series [8]: in vivo. To be noted: both sexes, Sprague-Dawley (SD), rat, po. On the set-up: species or system SD rats. As for the experimental part: as §1
(§4) Method: 120 SD rats were randomly divided into 4 groups, 30 rats in each group, half male and half female. The rats were given an intragastric administration of a solvent of PEG400/Kolliphor® HS15/ultrapure water (40/10/50, v/v/v) and the hydrobromide (100, 300 and 600 mg/kg) of Compound Z dissolved in the solvent, respectively, once a day for 14 consecutive days; two-thirds of the animals in each group (20 animals in each group, half male and half female) were dissected after the end of the administration period (day 15); the remaining animals in each group (10 animals in each group, half male and half female) were dissected at the end of the 14-day recovery period (day 29). The following indexes were observed, measured and evaluated: clinical observations, body weight, feed consumption, ophthalmological examination, hematology, blood coagulation, plasma biochemistry and plasma electrolytes, urinalysis, anatomical and morphological observation by naked eyes, organ weight and histopathological examination, and the accompanying rat bone marrow micronucleus test.

For series [9], the system named is SD rats. In words: in vivo. The settings on record: both, Sprague-Dawley (SD), rat, 600 mg/kg, 14 days. The procedure: as §1, §4
Series [10] can be described thus: Toxicity test of beagle dogs by intragastric administration for 14 days and drug withdrawal for 14 days. Format: in vivo. The settings on record: both sexes, dog, in vivo, po; beagle dogs, males and females, intragastric once a day for 14 consecutive days, 14 days recovery; read-out: no-observed-adverse-effect level (NOAEL). As for the experimental part: as §1
(§5) Test method: 40 beagle dogs were randomly divided into 4 groups, 10 dogs in each group, half male and half female. The dogs were given an intragastric administration of a solvent of PEG400/Kolliphor® HS15/ultrapure water (40/10/50, v/v/v) and the hydrobromide (30, 100 and 250 mg/kg) of Compound Z dissolved in the solvent, respectively, once a day for 14 consecutive days; three-fifths of the animals in each group (6 animals in each group, half male and half female) were dissected after the end of the administration period (day 15); the remaining animals in each group (4 animals in each group, half male and half female) were dissected at the end of the 14-day recovery period (day 29). The following indexes were observed, measured and evaluated: clinical observations, ophthalmological examination, body weight, feed consumption, body temperature, electrocardiogram (HR, PR interval, QRS interval, T wave amplitude, QT interval and QTcV interval), clinical Pathology (hematology, blood coagulation, plasma biochemistry, urine), pathological examination (morphological observation by naked eyes, organ weight, histopathological examination).

The test system of series [11] is beagle dogs. The description is as above. The format is in vivo. As for the experimental part: as §1, §5
Where [12] appears, read: listed as Hydrobromide of Compound Z with crystal form A.

Molecules are shown by their SMILES.

For `Br.[2H]c1cc([C@]2(C#N)O[C@H](COC(=O)C(C)C)[C@@H](OC(=O)C(C)C)[C@H]2OC(=O)C(C)C)n2ncnc(N)c12` [Hydrobromide of Compound Z, (2R,3R,4R,5R)-2-(4-aminopyrrolo[2,1-f][1,2,4]triazin-7-yl-5-d)-2-cyano-5-(isobutyryloxymethyl)tetrahydrofuran-3,4-diyl bis(2-methylpropanoate) hydrobromide], the Hygroscopicity result in series [1] is reported as “None”; in series [1] (setting [12]), “no hygroscopicity”; in series [1] (listed as hydrobromide of Compound Z with crystal form A), “no hygroscopicity”; in [1] (listed as hydrobromide of Compound Z) it was “no hygroscopicity”. For the same compound, the “increase in moisture content” value is on record as “no increase” in [1] and “RH80%, with an increase in moisture content of <0.1%,” in [1] (setting [12]). Also, in series [2], the Stability result was “Good stability under high temperature (80° C.), high”. Moreover, the solubility (in general, how much of the substance goes into solution per volume) at 30 min in series [3] came out at 410 µg/mL. In addition, the results for the MTD at 14 days in series [4] and in [6] were no less than 2000 mg/kg and no less than 1000 mg/kg, respectively. In addition, the “early death or euthanasia” value in [5] is reported as “no early death or euthanasia”. Besides, the accidental death result in series [7] is given as “no accidental death”; in [11] (beagle dogs, 30, 100 and 250 mg/kg intragastric once a day for 14 days) it was “no accidental death”. The values for the NOAEL at 14 days in [8] and in series [10] were 100 mg/kg and 30 mg/kg, respectively. Besides, the death entry in series [9] is “two animals in the 600 mg/kg dose group died”. Moreover, the adverse drug reactions result in series [11] (beagle dogs, 250 mg/kg and 100 mg/kg intragastric once a day for 14 days) was “adverse drug reactions in ophthalmological examination, clinical pathology, pathological examination, and the like could be observed”. In addition, the “various indexes at the end of the recovery period” value in [11] (beagle dogs, after 14-day recovery period) is listed as “returned to normal or showed a recovery trend”.

The values are drawn from patent US20230312584A1, “SALT OF NUCLEOSIDE ANALOG, AND CRYSTAL FORM, PHARMACEUTICAL COMPOSITION AND USE THEREOF” (priority 2020, published 2023).
